Measured values: US5359075A, “Quinophthalone compound” (Mitsui Toatsu Chemicals, Incorporated, priority 1991, dated 1994)

How the values were obtained:
[1] = maximum absorption wavelength; assay type: physicochemical; settings: for λmax: solvent not given
[2] = solubility of each compound in a solvent; assay type: physicochemical; settings: at 20° C., % on weight
Experimental: For the six compounds (B) to (H) of Examples 1 to 6 and the compounds (I) and (J) for comparison, the solubility of each compound in a solvent was measured.

[3] = Resin coloring suitability test: heat resistance; assay type: physicochemical; settings: 0.02 pts. wt., 300° C./10 min.; for Heat resistance (H), ABS: Acrylonitrile/butadiene/styrene; for Heat resistance (H), PC: Polycarbonate; for Heat resistance (H), PET: Polyethylene glycol terephthalate; for Heat resistance (H), PS: Polystyrene
Experimental: For the compounds (B, C, D, F, G and H), a resin coloring suitability test was conducted.
H: Heat resistance, 300° C./10 min., Gray scale judgement
Heat resistance and bleed resistance: […]
judgement, and the fifth grade or more was denoted by .circleincircle. an
the third to fifth grades by .largecircle..

[4] = Dichroic ratio / liquid crystal display element in liquid crystal mixture E-8; settings: liquid crystal E-8
Experimental: Each of the dyestuffs of Examples 12 and 13 was added to 9.8 parts of a liquid crystal mixture of a trade name E-8 made by Merck AG, and the mixture was then heated up to about 60° C. to completely dissolve the dyestuff. After cooling, the solution was poured into a liquid crystal display element, and it was then hermetically sealed.
Each sample was put on a light path of a spectrophotometer, and an absorbance A was measured by applying straight polarized light to the liquid crystal in parallel with the arrangement of the liquid crystal and an absorbance A' was measured by applying straight polarized light to the liquid crystal at a right angle to the arrangement of the liquid crystal. By the use of the thus measured absorbances A and A', a dichroic ratio was calculated in accordance with the following formula: […]
Furthermore, as comparative preparation examples, otherwise the same liquid crystals as mentioned above were prepared from compounds for comparison represented by the following formulae (K) and (L).

SMILES	Solubility in Acetone [2] [%]	Solubility in DMF [2] [%]	Solubility in THF [2] [%]	Solubility in Toluene [2] [%]	λmax ([1]; Table 1) [nm]	λmax ([1]; Table 5) [nm]	also measured
CC1CN=C(c2ccc3c(c2)C(=O)C(c2nc4ccccc4cc2O)C3=O)O1 (stereo not drawn) [B]	3.48	6.91	6.50	3.98	–	–	maximum absorption wavelength in toluene [1]: 448 nm; Heat resistance (H), ABS [3]: .largecircle. (the third to fifth grades); Heat resistance (H), PC [3]: .circleincircle. (the fifth grade or more); Heat resistance (H), PET [3]: .largecircle. (the third to fifth grades); Heat resistance (H), PS [3]: .circleincircle. (the fifth grade or more)
CC(C)c1nnc(-c2ccc3c(c2)C(=O)C(c2nc4ccccc4cc2O)C3=O)o1 (stereo not drawn) [C]	3.95	7.03	6.55	4.22	–	–	maximum absorption wavelength in toluene [1]: 450 nm; Heat resistance (H), ABS [3]: .largecircle. (the third to fifth grades); Heat resistance (H), PC [3]: .circleincircle. (the fifth grade or more); Heat resistance (H), PET [3]: .largecircle. (the third to fifth grades); Heat resistance (H), PS [3]: .circleincircle. (the fifth grade or more)
CC(C)c1ccc2nc(C3C(=O)c4ccccc4C3=O)c(O)cc2c1 [D]	1.58	3.56	2.28	1.79	–	–	maximum absorption wavelength in toluene [1]: 450 nm; Heat resistance (H), ABS [3]: .largecircle. (the third to fifth grades); Heat resistance (H), PC [3]: .circleincircle. (the fifth grade or more); Heat resistance (H), PET [3]: .largecircle. (the third to fifth grades); Heat resistance (H), PS [3]: .circleincircle. (the fifth grade or more)
CCCCNC(=O)c1ccc2c(c1)C(=O)C(c1nc3ccc(C(C)C)cc3cc1O)C2=O (stereo not drawn) [Example 7]	–	–	–	–	450	–	–
CC(C)NC(=O)c1cc2c(cc1C(=O)NC(C)C)C(=O)C(c1nc3ccc(C(C)C)cc3cc1O)C2=O [Example 8]	–	–	–	–	460	–	–
CCCCCCNC(=O)c1ccc2c(c1)C(=O)C(c1nc3ccc(C(C)C)cc3c(Br)c1O)C2=O (stereo not drawn) [Example 9]	–	–	–	–	450	–	–
CCCCSc1c(O)c(C2C(=O)c3ccccc3C2=O)nc2ccc(C(C)C)cc12 [Example 10]	–	–	–	–	450	–	–
CCCN(CCC)C(=O)c1ccc2c(c1)C(=O)C(c1nc3ccc(C(C)C)cc3cc1O)C2=O (stereo not drawn) [Example 11]	–	–	–	–	450	–	–
CCCCCCCCOc1ccc(-c2ccc(N3C(=O)c4cc5c(cc4C3=O)C(=O)C(c3nc4ccc(C(C)C)cc4cc3O)C5=O)cc2)cc1 [Example 12]	–	–	–	–	455	–	–
Cc1ccc2oc(-c3ccc(-c4ccc(N5C(=O)c6cc7c(cc6C5=O)C(=O)C(c5nc6ccc(C(C)C)cc6cc5O)C7=O)cc4)cc3)nc2c1 [Example 13]	–	–	–	–	455	–	–
CCCCCCCCN1CCN=C1c1ccc2c(c1)C(=O)C(c1nc3ccccc3c(Sc3ccc(C(C)(C)C)cc3)c1O)C2=O (stereo not drawn) [Example 14]	–	–	–	–	–	450	–
CC(C)c1ccc2nc(C3C(=O)c4ccc(-c5nnc(C(C)C)s5)cc4C3=O)c(O)cc2c1 (stereo not drawn) [Example 15]	–	–	–	–	–	450	–
CC(=O)OCC1(COC(C)=O)COC(c2ccc3c(c2)C(=O)C(c2nc4ccccc4cc2O)C3=O)=N1 (stereo not drawn) [Example 16]	–	–	–	–	–	450	–
CCCCCCC1(CC)COC(c2ccc3c(c2)C(=O)C(c2nc4ccccc4cc2O)C3=O)=N1 (stereo not drawn) [Example 17]	–	–	–	–	–	450	–
CCC1(COC(=O)C(C)C)COC(c2ccc3c(c2)C(=O)C(c2nc4ccc(C5CCCCC5)cc4cc2O)C3=O)=N1 (stereo not drawn) [Example 19]	–	–	–	–	–	450	–
CCC1(COC(C)=O)COC(c2ccc3c(c2)C(=O)C(c2nc4ccc(C(C)C)cc4cc2O)C3=O)=N1 (stereo not drawn) [Example 20]	–	–	–	–	–	450	–
CC(=O)OCC1(COC(C)=O)COC(c2ccc3c(c2)C(=O)C(c2nc4ccc(C(C)C)cc4cc2O)C3=O)=N1 (stereo not drawn) [Example 21]	–	–	–	–	–	450	–
CCCCN(CCCC)C(=O)c1ccc2c(c1)C(=O)C(c1nc3ccc(C(C)C)cc3cc1O)C2=O (stereo not drawn) [F]	7.10	13.49	12.63	10.52	–	–	maximum absorption wavelength in toluene [1]: 450 nm; Heat resistance (H), ABS [3]: .largecircle. (the third to fifth grades); Heat resistance (H), PC [3]: .circleincircle. (the fifth grade or more); Heat resistance (H), PET [3]: .circleincircle. (the fifth grade or more); Heat resistance (H), PS [3]: .circleincircle. (the fifth grade or more)
CCC1(CO)COC(c2ccc3c(c2)C(=O)C(c2nc4ccc(C(C)C)cc4cc2O)C3=O)=N1 (stereo not drawn) [G]	3.84	6.91	6.50	4.01	–	–	maximum absorption wavelength in toluene [1]: 450 nm; Heat resistance (H), ABS [3]: .largecircle. (the third to fifth grades); Heat resistance (H), PC [3]: .circleincircle. (the fifth grade or more); Heat resistance (H), PET [3]: .circleincircle. (the fifth grade or more); Heat resistance (H), PS [3]: .circleincircle. (the fifth grade or more)
CCC1(COC(=O)C(C)C)COC(c2ccc3c(c2)C(=O)C(c2nc4ccc(C(C)C)cc4cc2O)C3=O)=N1 (stereo not drawn) [H]	5.31	12.64	10.38	8.85	–	–	maximum absorption wavelength in toluene [1]: 450 nm; Heat resistance (H), ABS [3]: .largecircle. (the third to fifth grades); Heat resistance (H), PC [3]: .circleincircle. (the fifth grade or more); Heat resistance (H), PET [3]: .circleincircle. (the fifth grade or more); Heat resistance (H), PS [3]: .circleincircle. (the fifth grade or more)
CCCCCCCCOC(=O)c1ccc2c(c1)C(=O)C(c1nc3ccc(CCCC)cc3cc1O)C2=O (stereo not drawn) [I, reference compound]	0.33	1.20	0.98	0.51	–	–	dissolution in the liquid crystal [4]: not completely dissolved
CCCCOC(=O)c1ccc2c(c1)C(=O)C(c1nc3ccc(C)cc3cc1O)C2=O (stereo not drawn) [J, reference compound]	0.13	0.78	0.34	0.28	–	–	dissolution in the liquid crystal [4]: not completely dissolved
